Test systems include SNB-19 CNS; SF-539 CNS; MDA-N; NCI-H522 lung; HCT-15 colon; HL-60(TB) leukemia; IGROV1 ovarian; SNB-75 CNS; KM12 colon; ACHN renal; SK-MEL-28 melanoma; SK-OV-3 ovarian.
Test in all cases: growth of human tumour cells (NCI), 48 h

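Cells were grown in 96-well plates and exposed to each compound for 48 hours at five concentrations; endpoints were interpolated linearly between bracketing concentrations, or set to the highest concentration if not reached. TGI: total growth inhibition.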 Some results are limits rather than exact numbers.

Consider `O=C(O)CSCC(=O)Nc1ccc2cccc3c2c1CC3`, for which the TGI in the assay on SNB-19 CNS, in the assay on SF-539 CNS, with MDA-N, in the assay on NCI-H522 lung, in the assay on HCT-15 colon and in the assay with HL-60(TB) leukemia was above 100 µM in each case. In addition, the TGI in the assay with IGROV1 ovarian, with SNB-75 CNS, in the assay on KM12 colon, with ACHN renal and with SK-MEL-28 melanoma was above 100 µM each time.

`O=C(O)CSc1cc(-c2ccccc2)nc2ccccc12`: the TGI was above 100 µM with SNB-19 CNS; above 100 µM in the assay with MDA-N; 70.9 µM with NCI-H522 lung; above 100 µM with HCT-15 colon; 58.2 µM in the assay on HL-60(TB) leukemia; above 100 µM in the assay on IGROV1 ovarian. The TGI in the assay with KM12 colon, with ACHN renal and with SK-MEL-28 melanoma was above 100 µM in each case.

Take `COC(=O)NCCc1[nH]nc2c1C(=O)C=C(Nc1ccccc1)C2=O`: the TGI in the assay on SNB-19 CNS is above 100 µM; with SF-539 CNS it was 52.4 µM; in the assay on MDA-N it was 33.2 µM; in the assay on NCI-H522 lung it was 28.6 µM; with HCT-15 colon, above 100 µM; with HL-60(TB) leukemia it was 46.3 µM. The TGI is above 100 µM with SK-OV-3 ovarian; 65.2 µM in the assay on IGROV1 ovarian; above 100 µM in the assay on SNB-75 CNS; 62.2 µM in the assay with KM12 colon; above 100 µM with ACHN renal.

Consider `OCCN(CCO)c1ccc2c(C(F)(F)F)cc(C(F)(F)F)nc2n1`, for which the TGI with SNB-19 CNS, with SF-539 CNS, in the assay on MDA-N, in the assay on NCI-H522 lung, in the assay on HCT-15 colon and with HL-60(TB) leukemia was above 100 µM each time. For the same molecule, the TGI in the assay with SK-OV-3 ovarian, in the assay with IGROV1 ovarian, in the assay on SNB-75 CNS, with KM12 colon, with ACHN renal and with SK-MEL-28 melanoma was above 100 µM throughout.

With `CC(=O)Oc1ccc2c(c1)c1c(=O)oc(N(C)C)nc1n2Cc1ccccc1`, the TGI in the assay on SNB-19 CNS, in the assay with SF-539 CNS, in the assay with MDA-N, in the assay with NCI-H522 lung, in the assay with HCT-15 colon and in the assay with HL-60(TB) leukemia was above 100 µM throughout. For the same molecule, the TGI in the assay on SK-OV-3 ovarian, with IGROV1 ovarian, in the assay on SNB-75 CNS, in the assay on KM12 colon, with ACHN renal and with SK-MEL-28 melanoma was above 100 µM each time.

For `NNC(=O)c1c(Cl)c(Cl)c(Cl)c(Cl)c1-c1nc2ccccc2[nH]1`, the TGI in the assay on SNB-19 CNS is 88.8 µM; with SF-539 CNS, above 100 µM; in the assay on MDA-N, 18.9 µM; in the assay with NCI-H522 lung, above 100 µM; with HCT-15 colon it was 40.9 µM; in the assay on HL-60(TB) leukemia, 38.1 µM. Also, the TGI in the assay on SK-OV-3 ovarian came out at 59.2 µM; in the assay with IGROV1 ovarian, 27.7 µM; in the assay with SNB-75 CNS it was 38.2 µM; in the assay on KM12 colon, 29.1 µM; with ACHN renal, 67.2 µM; in the assay with SK-MEL-28 melanoma, 53.4 µM.

For the molecule `c1ccc(N=C2SC(=NNc3ccccc3)SC2=Nc2ccccc2)cc1`, the TGI in the assay with SNB-19 CNS, in the assay on SF-539 CNS, in the assay with MDA-N, in the assay with NCI-H522 lung, in the assay on HCT-15 colon and in the assay with HL-60(TB) leukemia was above 100 µM in each case. The TGI with SK-OV-3 ovarian, with IGROV1 ovarian, with SNB-75 CNS, in the assay on KM12 colon, in the assay on ACHN renal and with SK-MEL-28 melanoma was above 100 µM throughout.

`Cc1ccc2c(c1)NC(=O)CCSSCCC(=O)N2`: the TGI in the assay on SNB-19 CNS, in the assay on SF-539 CNS, with MDA-N, with NCI-H522 lung, in the assay with HCT-15 colon and in the assay with HL-60(TB) leukemia was above 100 µM each time. Moreover, the TGI in the assay on SK-OV-3 ovarian, in the assay on IGROV1 ovarian, with KM12 colon, with ACHN renal and with SK-MEL-28 melanoma was above 100 µM in each case.

On to `CN1C(c2ccccc2)=CC(=O)C(O)=C(c2ccccc2)S1(=O)=O`, for which the TGI with SNB-19 CNS, in the assay on SF-539 CNS, with MDA-N, with NCI-H522 lung, in the assay on HCT-15 colon and in the assay with HL-60(TB) leukemia was above 100 µM throughout. For the same molecule, the TGI in the assay on SK-OV-3 ovarian, with IGROV1 ovarian, in the assay on SNB-75 CNS, in the assay on KM12 colon, in the assay on ACHN renal and with SK-MEL-28 melanoma was above 100 µM throughout.

As for `CC(=O)Nc1ncc(Sc2ccccc2C(=O)O)s1`, the TGI in the assay on SNB-19 CNS, with SF-539 CNS, with MDA-N, with HCT-15 colon, in the assay on HL-60(TB) leukemia and in the assay on IGROV1 ovarian was above 100 µM in each case. For the same molecule, the TGI in the assay on SNB-75 CNS, with KM12 colon, with ACHN renal and in the assay on SK-MEL-28 melanoma was above 100 µM in each case.

With `CCOP(=O)(/C=C\n1cnc2c(=O)n(C(C)=O)c(N)nc21)OCC`, the TGI in the assay on SNB-19 CNS, in the assay with SF-539 CNS, in the assay with MDA-N, in the assay on HCT-15 colon, with HL-60(TB) leukemia and in the assay on SK-OV-3 ovarian was above 100 µM throughout. Further, the TGI with IGROV1 ovarian, in the assay with SNB-75 CNS, in the assay with KM12 colon, in the assay with ACHN renal and in the assay with SK-MEL-28 melanoma was above 100 µM each time.

`COc1cccc2cc(C(N)=O)c(=N)oc12`: the TGI in the assay on SNB-19 CNS, in the assay with SF-539 CNS, in the assay on MDA-N, in the assay with HCT-15 colon, with HL-60(TB) leukemia and with SK-OV-3 ovarian was above 100 µM in each case. For the same molecule, the TGI in the assay with IGROV1 ovarian, in the assay with SNB-75 CNS, with KM12 colon, in the assay on ACHN renal and in the assay with SK-MEL-28 melanoma was above 100 µM each time.

Consider `c1ccc(C2SCC3=Nc4ccccc4CN32)cc1` (stereo not drawn), for which the TGI was 57.8 µM with SNB-19 CNS; 99.2 µM in the assay on SF-539 CNS; above 100 µM in the assay on MDA-N; above 100 µM in the assay with HCT-15 colon; 89.9 µM in the assay with HL-60(TB) leukemia; above 100 µM in the assay with SK-OV-3 ovarian. The TGI in the assay with SNB-75 CNS, in the assay with KM12 colon and with SK-MEL-28 melanoma was above 100 µM each time.

For the origin of these results see PubChem BioAssay (NCI).
